Consider 59 compounds from patent US9556159B2, “Renin inhibitor” (MITSUBISHI TANABE PHARMA CORPORATION, priority 2012, dated 2017).

Structures are written as SMILES.

One test deals with T1, Recombinant human renin (Homo sapiens, UniProt P00797).
T1 sequence (P00797 67-406): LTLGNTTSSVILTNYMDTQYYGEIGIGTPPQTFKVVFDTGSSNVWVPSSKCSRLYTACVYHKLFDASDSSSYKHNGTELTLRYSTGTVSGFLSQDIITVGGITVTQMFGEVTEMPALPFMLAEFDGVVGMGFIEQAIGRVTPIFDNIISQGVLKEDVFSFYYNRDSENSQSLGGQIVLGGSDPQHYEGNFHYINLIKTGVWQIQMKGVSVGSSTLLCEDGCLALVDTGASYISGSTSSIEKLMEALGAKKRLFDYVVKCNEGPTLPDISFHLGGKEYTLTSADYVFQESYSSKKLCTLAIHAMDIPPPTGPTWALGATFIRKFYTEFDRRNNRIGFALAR
Briefly: Inhibitory activity against human renin (fluorogenic peptide substrate). In kind it is biochemical. The following applies: 37° C. for 1 hour, read-out: IC50. On the procedure:
Inhibitory Activity Against Human Renin
A substrate of synthetic peptide (Nma-KHPFH LVIHK(Dnp)-NH2) and test compound were mixed, and fluorescence intensity was assayed using a fluorophotometer before starting an enzymatic reaction (exciting wavelength: 340 nm, measuring wavelength: 460 nm). Recombinant human renin was added and the mixture was incubated at 37° C. for 1 hour, and the fluorescence intensity was measured after the reaction using a fluorophotometer (exciting wavelength: 340 nm, measuring wavelength: 460 nm).
For the compound `COCc1ccc2c([C@@H](C)N(C(=O)[C@H]3CNCCO3)C3CC3)nn(CCCNC(=O)OC)c2n1` [Example 105], the IC50 came out at 1.2 nM.
Turning to `COC(=O)NCCCn1nc([C@@H](C)N(C(=O)[C@H]2CNCCO2)C2CC2)c2ccc(CN(C)C)cc21` [Example 111], the IC50 was 3.5 nM.
The same measure, in the same setting: the same measure for `CCOC(=O)NCCCn1nc([C@@H](C)N(C(=O)[C@H]2CNCCO2)C2CC2)c2ccc(C)nc21` [Example 58]: 1.6 nM.
As for `COCCCn1ncc2c(F)cc([C@@H](C)N(C(=O)[C@H]3CNCCO3)C3CC3)cc21` [Example 23], the IC50 was 2.4 nM.
On the same count and under the same terms, the same measure for `COCCCc1nn(C)c2ccc([C@@H](C)N(C(=O)[C@H]3CNCCO3)C3CC3)cc12` [Example 15]: 2.6 nM; for `COC(=O)NCCCn1cc([C@@H](C)N(C(=O)[C@H]2CNCCO2)C2CC2)c2nccnc21` [Example 84]: 1.7 nM; for `COCCCOc1cc([C@@H](C)N(C(=O)[C@H]2CNCCO2)C2CC2)cc2c1OCCC2` [Example 19]: 2.4 nM.
The same measure, in the same setting: for `COC(=O)NCCCn1cc([C@@H](C)N(C(=O)[C@H]2CNCCO2)C2CC2)c2ncc(C)nc21` [Example 102] the value was 0.4 nM.

Still in this test, the particulars now being: 50% inhibitory concentration (IC50) against human renin, 37° C. for 1 hour.
As for `CCc1cc(CCCNC(=O)OC)cc([C@@H](C)N(C(=O)[C@H]2CNCCO2)C2CC2)n1` [Example 120], the IC50 was determined as 1.7 nM.
The same measure, in the same setting: the same measure for `CCc1c([C@@H](C)N(C(=O)[C@H]2CNCCO2)C2CC2)nn(CCCNC(=O)OC)c1-c1ccccn1` [Example 217]: 1.5 nM.
Same read-out and setting: for `C[C@H](c1cn(Cc2ccccc2)c(-c2ccccc2)n1)N(C(=O)[C@H]1CNCCO1)C1CC1` [Example 194] the value was 3 nM.
On the same count and under the same terms, the same measure for `COC(=O)NCCCn1cc([C@@H](C)N(C(=O)[C@H]2CNCCO2)C2CC2)nc1-c1ccccc1F` [Example 168]: 0.3 nM; for `COC[C@@H]1CNC[C@H](C(=O)N(C2CC2)[C@@H](C)c2nn(CCCNC(=O)OC)c(C3CCOCC3)c2F)O1` [Example 330]: 0.3 nM; for `COC(=O)NCCCc1cc([C@@H](C)N(C(=O)[C@H]2CN[C@@H](C)CO2)C2CC2)nn1-c1ccccc1` [Example 355]: 0.8 nM.
As for `COC(=O)NCCCn1cc(C(C)N(C(=O)[C@H]2CNCCO2)C2CC2)c2ncc(F)cc21` (some centres unmarked) [Example 139], the IC50 was 2.1 nM.
Same read-out and setting: the same measure for `COC(=O)NCCCc1cc(C(C)N(C(=O)[C@H]2CNCCO2)C2CC2)sc1C(C)C(F)(F)F` (some centres unmarked) [Example 405]: 3.9 nM.
Take `COC(=O)NCCCc1cc([C@@H](C)N(C(=O)[C@H]2CNC[C@@H](C)O2)C2CC2)nn1-c1cccc(C)c1` [Example 344]: the IC50 stood at 0.4 nM.
For `COC(=O)NCCCc1cc([C@@H](C)N(C(=O)[C@H]2CNCCO2)C2CC2)nc2ccccc12` [Example 119], the IC50 amounted to 0.5 nM.
Turning to `COC(=O)NCCCn1nc([C@@H](C)N(C(=O)[C@H]2CNC[C@@H](C(=O)NCc3ccccc3)O2)C2CC2)c2ccc(C)nc21` [Example 253], the 50% inhibitory concentration (IC50) came out at 0.4 nM.
The same measure, in the same setting: the same measure for `COC(=O)NCCCc1cc([C@@H](C)N(C(=O)[C@H]2CNCCO2)C2CC2)sc1-c1cc(F)cc(F)c1O` [Example 275]: 0.9 nM.
Take `COCCNc1ncc([C@@H](C)N(C(=O)[C@H]2CNCCO2)C2CC2)nc1CCCNC(=O)OC` [Example 444]: the 50% inhibitory concentration (IC50) is 4.2 nM.
As for `COc1ccc2nc([C@@H](C)N(C(=O)[C@H]3CNCCO3)C3CC3)cc(CCCNC(C)=O)c2c1` [Example 156], the IC50 amounted to 2.1 nM.
Still for that read-out and setting: for `COC(=O)NCCCn1cc([C@@H](C)N(C(=O)[C@H]2CNCCO2)C2CC2)nc1C1CCOCC1` [Example 291] the value was 0.6 nM; for `COCC(C)Oc1ncc(C(C)N(C(=O)C2CNCCO2)C2CC2)nc1CCCNC(=O)OC` (centres unmarked) [Example 436], 2.2 nM; for `COC(=O)NCCCc1cc([C@@H](C)N(C(=O)[C@H]2CNCCO2)C2CC2)sc1-c1cnc(N)nc1` [Example 412], 0.6 nM.
As to `COC(=O)NCC(F)Cn1nc([C@@H](C)N(C(=O)[C@H]2CNCCO2)C2CC2)cc1-c1ccccc1` (some centres unmarked) [Example 193], the IC50 was 0.4 nM.
The same measure, in the same setting: the same measure for `COC(=O)NCCCc1cc([C@@H](C)N(C(=O)[C@H]2CNCCO2)C2CC2)sc1-c1ccccc1-c1nnn[nH]1` [Example 270]: 0.5 nM; for `COc1cccc(Cn2cc([C@@H](C)N(C(=O)[C@H]3CNCCO3)C3CC3)nc2-c2ccccc2)c1` [Example 195]: 3.6 nM.
The same measure, in the same setting: for `COC(=O)NCCCc1cc([C@@H](C)N(C(=O)[C@H]2CNC[C@@H](C)O2)C2CC2)nn1-c1cccc(F)c1F` [Example 347] the value was 0.7 nM; for `COC[C@@H]1CNC[C@H](C(=O)N(C2CC2)[C@H](C)c2nc(CCCNC(=O)OC)n(-c3cccc(Cl)c3)n2)O1` [Example 381], 1.7 nM.
For the compound `COC(=O)NCC(F)Cn1nc([C@@H](C)N(C(=O)[C@H]2CNCCO2)C2CC2)cc1-c1ccccc1` (some centres unmarked) [Example 198], the IC50 turned out to be 0.2 nM.
The same measure, in the same setting: the same measure for `COC(=O)NCCCn1cc([C@@H](C)N(C(=O)[C@H]2CN[C@@H](COCc3ccccc3)CO2)C2CC2)nc1C1CCOCC1` [Example 299]: 0.9 nM; for `COC(=O)NCCCc1cc([C@@H](C)N(C(=O)[C@H]2CNCCO2)C2CC2)nn1C(C)(C)C` [Example 213]: 0.3 nM.
On the same count and under the same terms, for `CCc1nc([C@@H](C)N(C(=O)[C@H]2CNCCO2)C2CC2)cc2c1ncn2CCCOC` [Example 388] the value was 1.8 nM.
Same read-out and setting: the same measure for `COC(=O)NCCCn1nc([C@@H](C)N(C(=O)[C@H]2CNCC(C)(C)O2)C2CC2)c2ccc(C)nc21` [Example 166]: 7 nM; for `COC(=O)NCCCc1nc([C@@H](C)N(C(=O)[C@H]2CNCCO2)C2CC2)sc1-c1ccnn1C` [Example 415]: 0.6 nM.
For `COC(=O)NCCCn1cc([C@@H](C)N(C(=O)[C@H]2CNCCO2)C2CC2)nc1-c1ccc(C)cc1` [Example 163], the IC50 turned out to be 0.4 nM.
Still for that read-out and setting: for `COC(=O)NCCCc1cc([C@@H](C)N(C(=O)[C@H]2CNCCO2)C2CC2)sc1Cc1nnn[nH]1` [Example 272] the value was 6.1 nM.
As to `COCCCc1cc([C@@H](C)N(C(=O)[C@H]2CNC[C@@H](C)O2)C2CC2)cc(CCCNC(=O)OC)n1` [Example 373], the IC50 is 0.8 nM.
On to `COC(=O)NCCCn1nc([C@@H](C)N(C(=O)[C@H]2CN[C@@H](COCc3ccccc3)CO2)C2CC2)c2ccc(C)nc21` [Example 257], for which the IC50 is 1.3 nM.
On the same count and under the same terms, for `COC(=O)NCCCn1nc([C@@H](C)N(C(=O)[C@H]2CNCCO2)C2CC2)cc1-c1ncccc1C` [Example 187] the value was 0.5 nM.
Consider `COC(=O)NCCCc1nc(OC)cc([C@@H](C)N(C(=O)[C@H]2CNC[C@@H](C)O2)C2CC2)n1` [Example 375], for which the IC50 is 1.3 nM.
On to `COC(=O)NCCCc1cc([C@@H](C)N(C(=O)[C@H]2CNCCO2)C2CC2)nn1-c1ccccc1F` [Example 211], for which the IC50 was 0.5 nM.
Take `COC(=O)NCCCc1cc([C@@H](C)N(C(=O)[C@H]2CNCCO2)C2CC2)sc1-c1ccccc1NS(C)(=O)=O` [Example 269]: the IC50 came out at 0.3 nM.
On the same count and under the same terms, for `COC[C@@H]1CNC[C@H](C(=O)N(C2CC2)[C@@H](C)c2nn(CCCNC(=O)OC)c(-c3ccccn3)c2C)O1` [Example 337] the value was 1.2 nM; for `CCOc1ncc(C(C)N(C(=O)[C@H]2CNC[C@@H](COC)O2)C2CC2)nc1CCCNC(=O)OC` (some centres unmarked) [Example 398], 5.1 nM; for `CCc1cc([C@@H](C)N(C(=O)[C@H]2CNC[C@@H](C)O2)C2CC2)nc2c1cnn2CCCOC` [Example 380], 2.6 nM.
As to `COC(=O)NCCCc1nc(C(C)N(C(=O)[C@H]2CNCCO2)C2CC2)nn1-c1cccc(Cl)c1` (some centres unmarked) [Example 360], the IC50 was found to be 7.6 nM.
Consider `COC(=O)NCCCc1nc([C@@H](C)N(C(=O)[C@H]2CNCCO2)C2CC2)sc1-c1ccc(C)nc1` [Example 408], for which the IC50 was 1.1 nM.
For the compound `COC(=O)NCCCc1sc(C(C)N(C(=O)[C@H]2CNCCO2)C2CC2)cc1-c1ccccc1F` (some centres unmarked) [Example 406], the 50% inhibitory concentration (IC50) is 3.4 nM.
In the case of `COC(=O)NCCCn1nc([C@@H](C)N(C(=O)[C@H]2CNCCO2)C2CC2)c2c1CCCC2` [Example 189], the IC50 came to 0.9 nM.
In the case of `COC(=O)NCCCn1cc([C@H](C)N(C(=O)[C@H]2CN[C@@H](CC(F)F)CO2)C2CC2)nc1C1CCOCC1` [Example 318], the IC50 is 1.3 nM.
Still for that read-out and setting: the same measure for `COC(=O)NCCCc1cc([C@@H](C)N(C(=O)[C@H]2CNCCO2)C2CC2)nn1-c1ccc(C)cc1` [Example 231]: 1.2 nM.
On the same count and under the same terms, the same measure for `CCc1nc([C@@H](C)N(C(=O)[C@H]2CNC[C@@H](C)O2)C2CC2)cc2c1ncn2CCCOC` [Example 392]: 0.7 nM.
Same read-out and setting: for `COC(=O)NCCCc1cc([C@@H](C)N(C(=O)[C@H]2CNC[C@@H](C)O2)C2CC2)nn1-c1cccc(F)c1` [Example 359] the value was 0.3 nM; for `COC[C@H]1CO[C@@H](C(=O)N(C2CC2)[C@H](C)c2cc(CCCNC(=O)OC)nc(OC)c2)CN1` [Example 271], 3 nM.
Take `COC(=O)NCCCn1nc([C@@H](C)N(C(=O)[C@H]2CNCCO2)C2CC2)cc1-c1ccccc1F` [Example 173]: the IC50 was determined as 0.3 nM.
Take `COC[C@@H]1CNC[C@H](C(=O)N(C2CC2)[C@H](C)c2cn(CCCNC(=O)OC)c(C(F)(F)F)n2)O1` [Example 320]: the IC50 amounted to 3.2 nM.
The same measure, in the same setting: for `COC(=O)NCCCn1nc([C@@H](C)N(C(=O)[C@H]2CNC[C@@H](CO)O2)C2CC2)c2ccc(C)nc21` [Example 255] the value was 0.4 nM.

The IC50 is the point on the concentration scale where inhibition reaches its midpoint.
